From ChEMBL document CHEMBL1201862, “PubChem BioAssay data set” (2004) come the findings set out here.

Several values for one entry are separate records, joined by “and”; a condition that tells them apart may be missing. Equal values may be shown once.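 Results reflect a 48-hour exposure of cells in 96-well plates to compound at five concentrations. GI50 is the concentration that inhibits growth by half.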 Activity calls are given as the source filed them. No stated cut-off is given here; in the data, active = GI50 up to about 1.1 µM and inactive = higher.

Among the test systems are EKVX; HCC 2998; HOP-92; Hs-578T; KM12; MDA-MB-231; MDA-MB-435; MDA-N; Malme-3M; NCI-H522; NCI/ADR-RES; PC-3; SR; SW-620; T47D; SK-MEL-5; BT-549.
Test in all cases: NCI tumour cell line growth inhibition, 48 h

`O=C(CCC(NC(=O)OCc1ccccc1)C(=O)OCc1ccccc1)Nc1cccc(OCc2ccccc2)c1` (stereo unspecified): the GI50 was 35.6 µM (inactive) in the test on EKVX; 42.7 µM (inactive) with HCC 2998; 25 µM (inactive) in the test with HOP-92; 18.4 µM (inactive) with Hs-578T; 34.8 µM (inactive) in the test on KM12; 25.4 µM (inactive) with MDA-MB-231. Also, the GI50 in the test on MDA-MB-435 was 20 µM (inactive); with MDA-N, 32.1 µM (inactive); in the test with Malme-3M, 14.5 µM (inactive); in the test with NCI-H522, 18.7 µM (inactive); in the test with NCI/ADR-RES, 36.2 µM (inactive); in the test with PC-3, 13.2 µM (inactive). Further, the values for the GI50 in the test with SR, in the test on SW-620 and with T47D were 18.5 µM (inactive), 33.6 µM (inactive) and 19.5 µM (inactive), respectively.

Take `CC1=C2c3ccccc3N(C(=O)/C=C/C(=O)O)[C@H]2[C@H]2C(=O)OC(=O)[C@H]2C1`: the GI50 in the test on EKVX, in the test with HCC 2998, in the test on Hs-578T, in the test with KM12, in the test on MDA-MB-231 and in the test with MDA-MB-435 was > 10 µM (inactive) each time. In addition, the GI50 with MDA-N, in the test with Malme-3M, in the test with NCI-H522, in the test on NCI/ADR-RES, in the test on PC-3 and in the test with SK-MEL-5 was > 10 µM (inactive) in each case. In addition, the GI50 in the test with SR, with SW-620 and in the test on T47D was > 10 µM (inactive) each time.

With `O=C1OC(c2ccccc2)=N/C1=C\c1ccccc1`, the GI50 in the test with EKVX was > 100 µM (inactive); in the test with HCC 2998, > 100 µM (inactive) and 67.9 µM (inactive); in the test with HOP-92 it was > 100 µM (inactive); with Hs-578T it was 58.7 µM (inactive) and 36.7 µM (inactive); with KM12, 34.8 µM (inactive) and 26.6 µM (inactive); in the test on MDA-MB-231, > 100 µM (inactive). Further, the GI50 with MDA-MB-435 is 64 µM (inactive) and 56 µM (inactive); in the test on MDA-N it was 44.7 µM (inactive); in the test with NCI-H522 it was 42.9 µM (inactive); with NCI/ADR-RES, 29.2 µM (inactive) and 40.7 µM (inactive); with PC-3 it was > 100 µM (inactive); with SK-MEL-5 it was 38.1 µM (inactive) and 29.4 µM (inactive). The GI50 in the test on SR was 28.4 µM (inactive) and 14.5 µM (inactive); in the test with T47D it was > 100 µM (inactive).

`CN(C)CC(CO)(CN(C)C)CN(C)C`: the GI50 in the test with BT-549, with EKVX, with HOP-92, in the test with KM12, in the test on MDA-N and in the test on Malme-3M was > 100 µM (inactive) each time. Besides, the GI50 in the test with NCI-H522, in the test on NCI/ADR-RES, in the test on PC-3, with SK-MEL-5, in the test on SR and in the test with SW-620 was > 100 µM (inactive) each time.

Regarding `CC12C3C4C1C1C2C3C41CO` (stereo unspecified), the GI50 in the test on EKVX, in the test with HOP-92, in the test with KM12, with MDA-MB-231, in the test on MDA-MB-435 and in the test on MDA-N was > 100 µM (inactive) in each case. Moreover, the GI50 with NCI/ADR-RES, in the test on SK-MEL-5, in the test with SR and in the test with SW-620 was > 100 µM (inactive) each time.

As for `c1ccc(/N=C(\N2CCCCC2)N(CCN2CCCCC2)c2ccccc2)cc1`, the GI50 is 1.69 µM (inactive) with HCC 2998; 1.44 µM (inactive) in the test on HOP-92; 0.944 µM (active) in the test with Hs-578T; 1.39 µM (inactive) in the test on MDA-MB-231; 1.51 µM (inactive) with MDA-MB-435; 0.718 µM (active) in the test with MDA-N. Moreover, the GI50 with NCI-H522 was 0.428 µM (active); with NCI/ADR-RES, 1.65 µM (inactive); in the test on PC-3, 0.53 µM (active); in the test with SK-MEL-5 it was 1.36 µM (inactive); with SR it was 0.28 µM (active); in the test on SW-620 it was 1.8 µM (inactive). Further, the GI50 in the test on T47D is 1.08 µM (active).

`CC1(CO)COS(=O)OC1` (stereo unspecified): the GI50 in the test on HCC 2998, in the test with HOP-92, in the test on Hs-578T, with KM12, with MDA-MB-231 and in the test with MDA-MB-435 was > 100 µM (inactive) each time. Also, the GI50 in the test on MDA-N, with NCI-H522, with NCI/ADR-RES, in the test on PC-3, in the test on SK-MEL-5 and in the test on SR was > 100 µM (inactive) in each case. Further, the GI50 in the test with SW-620 and in the test with T47D was > 100 µM (inactive) each time.

With `COc1ccc(Nc2nc(N)c(C(=O)c3c[nH]c4ccccc34)s2)cc1`, the GI50 with BT-549 is 2.43 µM (inactive); with EKVX, 3.05 µM (inactive); in the test with HOP-92 it was 5.36 µM (inactive); in the test with KM12 it was 0.689 µM (active); in the test with MDA-MB-231, 9.91 µM (inactive); with MDA-MB-435, 0.161 µM (active). The GI50 was 0.31 µM (active) in the test on MDA-N; 3.44 µM (inactive) in the test with Malme-3M; 0.0302 µM (active) in the test on NCI-H522; 1 µM (active) in the test on NCI/ADR-RES; 2.15 µM (inactive) in the test with PC-3; 1.3 µM (inactive) in the test on SK-MEL-5. In addition, the GI50 in the test with SR is 0.0655 µM (active); with SW-620, 1.65 µM (inactive); in the test with T47D, 3.6 µM (inactive).

Consider `COc1ccc2c(c1)-c1oc3ccccc3c(=O)c1CO2`, for which the GI50 was 37.3 µM (inactive) in the test with BT-549; 25 µM (inactive) with EKVX; 46.5 µM (inactive) in the test with HCC 2998; 39.5 µM (inactive) in the test with KM12; 36.3 µM (inactive) with MDA-MB-231; 25.6 µM (inactive) in the test with MDA-MB-435. Further, the GI50 in the test with MDA-N is 23.4 µM (inactive); in the test with Malme-3M it was 55.8 µM (inactive); in the test on NCI-H522, 32.1 µM (inactive); with NCI/ADR-RES, 29.4 µM (inactive); in the test with PC-3, 31.9 µM (inactive); in the test with SK-MEL-5, 17.4 µM (inactive). Besides, the GI50 is 28.2 µM (inactive) in the test on SW-620 and 29.9 µM (inactive) with T47D.

Regarding `Cc1ccc(O)c(C(c2ccc([N+](=O)[O-])cc2)c2cc(C)ccc2O)c1`, the GI50 in the test on EKVX was 14.3 µM (inactive); in the test on HCC 2998 it was 2.99 µM (inactive); with HOP-92 it was 11.1 µM (inactive); in the test on Hs-578T it was 7.69 µM (inactive); in the test on KM12, 7.35 µM (inactive); with MDA-MB-231 it was 12 µM (inactive). Moreover, the GI50 in the test with MDA-MB-435 is 10.9 µM (inactive); in the test on NCI-H522, 12.3 µM (inactive); with NCI/ADR-RES, 10.7 µM (inactive); in the test with PC-3, 3.59 µM (inactive); with SK-MEL-5, 5.75 µM (inactive); in the test on SR, 3.98 µM (inactive). Also, the figures for the GI50 in the test on SW-620 and in the test on T47D were 13.5 µM (inactive) and 11.2 µM (inactive), respectively.
